Results published in US9073893B2, “3-Oxo-2,3-dihydro-1H-indazole-4-carboxamide derivatives as PARP-1 inhibitors” (priority 2011, dated 2015).

Assays:
PARP-1 = PARP-1 (Homo sapiens (Human), UniProt P09874); details: for DC50: read-out: PARP-1 (DC50 μM), probe P1, <0.25 = assay sensitivity limit; for Kd: read-out: PARP-1 (Kd μM), probe P3, <0.01 = assay sensitivity limit
Method: (§1) Affinity evaluation of the tested compounds and their selectivity with respect to the different PARP isoforms of interest was assessed in a displacement assay.
(§2) a) providing a reaction mixture containing:
(§3) the PARP protein isoform under investigation,
a compound of formula (IP):
(§4) wherein R11 is hydrogen or a methyl group, B is (CH2)n—NH group wherein n is 2 to 6; m is 0 or 1 and X^− is a counterion, and
serial dilutions of the test compound;
(§5) b) comparing the polarization signal generated in the absence of the test compound with the one generated in the presence of different concentrations of the test compound, and
(§6) c) evaluating the ability of the test compound to displace the compound of formula (IP) as defined above indicated from a decreased fluorescence polarization level.
(§7) The 5H-phenanthridin-6-one-derived probe (IP) was selected for its capability of binding to the PARP proteins, both encompassing full-length native proteins and fragment thereof.
(§8) The polarization signal can be measured, e.g., by a plate reader such as the Saphire2 (Tecan). Data analysis was performed, e.g., by using the Dynafit software. Displacement data were also fitted, e.g., by using Excel spreadsheet (Microsoft Inc. Seattle, USA) to a four parameter logistic model (4PL), or Hill-Slope model. The assay was used to test compounds of the present invention. […] Specific probes of formula (IP) used in the assay are: • P1. 9-Dimethylamino-11,11-dimethyl-1-(3-{methyl-[(6-oxo-5,6-dihydro-phenanthridin-2-ylcarbamoyl)-methyl]-carbamoyl}-propyl)-2,3,4,11-tetrahydro-naphtho[2,3-g]quinolinium trifluoroacetate; • P2. 9-Dimethylamino-11,11-dimethyl-1-[3-(3-{[(6-oxo-5,6-dihydro-phenanthridin-2-ylcarbamoyl)-methyl]-amino}-propylcarbamoyl)-propyl]-2,3,4,11-tetrahydro-naphtho[2,3-g]quinolinium trifluoroacetate; • P3. 9-Dimethylamino-11,11-dimethyl-1-[3-(6-{[(6-oxo-5,6-dihydro-phenanthridin-2-ylcarbamoyl)-methyl]-amino}-hexylcarbamoyl)-propyl]-2,3,4,11-tetrahydro-naphtho[2,3-g]quinolinium trifluoroacetate.

PARP-3 = PARP-3 (Homo sapiens (Human), UniProt Q9Y6F1); details: probe P1; for DC50: read-out: PARP-3 (DC50 μM); for Kd: read-out: PARP-3 (Kd μM)
Chain of PARP-3 (Q9Y6F1 whole entry): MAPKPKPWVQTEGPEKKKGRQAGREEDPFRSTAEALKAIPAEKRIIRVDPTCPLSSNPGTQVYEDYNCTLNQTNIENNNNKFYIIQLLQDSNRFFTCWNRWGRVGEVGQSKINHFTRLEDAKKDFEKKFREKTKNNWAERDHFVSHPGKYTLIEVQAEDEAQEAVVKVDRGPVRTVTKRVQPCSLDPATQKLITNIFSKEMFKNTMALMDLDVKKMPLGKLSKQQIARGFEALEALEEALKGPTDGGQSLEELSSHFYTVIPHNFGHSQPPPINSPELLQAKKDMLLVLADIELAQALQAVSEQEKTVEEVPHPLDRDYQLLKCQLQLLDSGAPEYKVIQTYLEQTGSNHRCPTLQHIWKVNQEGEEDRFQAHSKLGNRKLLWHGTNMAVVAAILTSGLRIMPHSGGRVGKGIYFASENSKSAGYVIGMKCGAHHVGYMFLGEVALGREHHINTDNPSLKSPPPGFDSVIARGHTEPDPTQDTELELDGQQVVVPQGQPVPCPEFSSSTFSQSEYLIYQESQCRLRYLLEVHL
Method: as §1, §2, §3
a compound of formula (IP):
as §4
serial dilutions of the test compound;
as §5, §6, §7, §8

PARP-2 = PARP-2 (Homo sapiens (Human), UniProt Q9UGN5); details: probe P1; for DC50: read-out: PARP-2 (DC50 μM); for Kd: read-out: PARP-2 (Kd μM)
Chain of PARP-2 (Q9UGN5 whole entry): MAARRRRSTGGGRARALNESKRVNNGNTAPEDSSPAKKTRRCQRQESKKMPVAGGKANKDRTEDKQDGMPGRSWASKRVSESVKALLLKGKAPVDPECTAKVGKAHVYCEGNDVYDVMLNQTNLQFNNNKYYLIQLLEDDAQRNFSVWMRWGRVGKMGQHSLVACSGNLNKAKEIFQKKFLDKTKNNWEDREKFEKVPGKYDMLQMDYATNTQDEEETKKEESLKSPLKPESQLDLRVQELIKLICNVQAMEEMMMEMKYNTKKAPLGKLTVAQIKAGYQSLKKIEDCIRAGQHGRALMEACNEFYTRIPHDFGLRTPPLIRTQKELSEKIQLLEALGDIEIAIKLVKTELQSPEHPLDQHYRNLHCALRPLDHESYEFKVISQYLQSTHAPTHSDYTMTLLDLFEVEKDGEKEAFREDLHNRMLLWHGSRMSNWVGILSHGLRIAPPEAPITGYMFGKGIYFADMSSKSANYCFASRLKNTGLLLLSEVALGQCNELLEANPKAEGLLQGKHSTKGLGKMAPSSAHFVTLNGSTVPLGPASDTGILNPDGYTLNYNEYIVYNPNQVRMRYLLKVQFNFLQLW
Method: as §1, §2, §3
a compound of formula (IP):
as §4
serial dilutions of the test compound;
as §5, §6, §7, §8

[1] = Pharmacokinetics and oral bioavailability in the mouse; assay type: in vivo; details: for clearance / Vd / AUC / half-life: male, Balb, Nu/Nu, plasma; for clearance / Vd: IV bolus 10 mg/kg; for clearance / Vd / AUC / half-life / C-max (oral): mean; for clearance: read-out: CL (IV bolus); for Vd: read-out: Vdss (IV bolus); for AUC / half-life / C-max (oral): oral 10 mg/kg; for half-life: read-out: T½ (oral) (converted); for F on AUC: oral vs IV dose-normalized AUC, 10 mg/kg
Method: A single administration at the dose of 10 mg/kg was given and three male animals for each route were used. […] After capping and vortex mixing, the plate was centrifuged for 15 minutes at 4000 rpm. The supernatant was considered as final extract and injected onto the LC-MS-MS system (UPLC system: Waters Acquity using BEH C18 50*2.1 mm 1.7 μm analytical column; MS instrument: Waters TQD equipped with Electro-Spray source operating in positive ion mode). Lower limit of quantification is 5.0 ng/mL, upper limit of quantification is 5000 ng/mL. Non-compartmental method (linear trapezoidal rule and linear regression analysis of natural log-transformed plasma concentrations vs. time data) was used. Absolute bioavailability (F) was calculated from the ratio of average oral to IV (intravenous) dose-normalized plasma AUC (area under curve) values.

[2] = system: Capan-1 human pancreatic cancer tumors
Method: Fragments of Capan-1 human pancreatic cancer tumors were implanted subcutaneously. […] Each group included seven animals. The treatment started one day after randomization. Compounds of formula (I) were administered by oral route as a methocel suspension. Tumor dimension was measured regularly by calipers during the experiments and tumor mass was calculated as described in Simeoni M. et al., Cancer Res 2004, 64, 1094-1101.
Temozolomide was administered by oral route at the dose of 50 mg/kg on days 3, 4, 5, 6, 7 and 8. Tumor growth and body weight were measured every 3 days. Tumor growth was assessed by caliper. The two diameters were recorded and the tumor weight was calculated according to the following formula: length (mm)×width^2/2. […] This delay (T−C value) was defined as the difference of time (in days) required for the treatment group (T) and the control group (C) tumors to reach a predetermined size (1 g). Toxicity was evaluated on the basis of body weight reduction and animal survival rate.

[3] = system: hydrogen peroxide induced PAR formation in HeLa cells; assay: cells; details: Homo sapiens, read-out: PAR assay (IC50 μM)
Method: Cellular activity of PARP-1 inhibitors was assessed by measuring the inhibition of the hydrogen peroxide induced PAR formation in HeLa cells (ECACC). Cellular PAR levels were measured by immunocytochemistry, and quantified using an ArrayScan vTi instrument (Cellomics Thermo Scientific).
Studies were performed as follows: 6000 cells/well were seeded in 96 well plates (Perkin Elmer) in MEM/10% FCS and incubated for 24 hours at 37° C., 5% carbon dioxide. Test compounds were then added at the required concentration for 30 minutes. DNA damage was then induced adding hydrogen peroxide at the concentration of 0.1 mM for 15 minutes. Concentration curves were prepared in MEM/10% FCS from compound stocks in DMSO, and final DMSO concentration was 0.002% (v/v). Duplicate wells for each concentration point were prepared with a typical highest compound concentration of 20 μM and serial dilution 1:3. Plates were dried and fixed adding cold methanol-acetone (70:30) solution for 15 minutes at room temperature, fixing solution was aspired and wells were air dried for 5 minutes and then dehydrated in PBS. Non-specific binding sites were blocked by incubating wells for 30 minutes in PBS containing 5% (w/v) FBS 0.05% tween20. Wells were then incubated for 1 hour at room temperature in PBS containing anti PAR mouse monoclonal antibody (Anti-PAR, Mouse mAb 10H, Tulip Cat N° 1020) diluted 1:200 in blocking solution. After 3 washes in PBS, wells incubated in PBS (w/v) 5% FBS 0.05% Tween20 containing 2 μg/mL Cy2-conjugated Goat anti mouse secondary antibody (Amersham Pharmacia Biotech cat. N° PA 42002) (Absorption maximum 489 nm fluorescence maximum 506 nm) and 1 μg/mL DAPI (Absorption maximum 359 nm fluorescence maximum 461 nm) (4′,6-diamidino-2-phenyindole dilactate) (Sigma cat. N° D9564), a high sensitivity dye for nucleic acid staining. After washing further 3 times in PBS, cellular PAR immunoreactivity was assessed using the ArrayScan vTi instrument, with a Zeiss 10×0.5 N.A. objective, and applying the Cytotoxicity. V3 algorithm (Cellomics/Thermo Fisher) with a XF100 filter. At least 10 fields, corresponding to at least 900 cells, were read for each well.
X is the logarithm of concentration, IC50 is the response; IC50 starts at bottom and goes to top with a sigmoid shape.

[4] = system: ovarian cancer patients with confirmed BRCA-1 mutations; details: phase I, monotherapy, preliminary data; cited from earlier work
[5] = temozolomide alone 50 mg/kg oral, days 3-8

Chain of PARP-1 (P09874 whole entry): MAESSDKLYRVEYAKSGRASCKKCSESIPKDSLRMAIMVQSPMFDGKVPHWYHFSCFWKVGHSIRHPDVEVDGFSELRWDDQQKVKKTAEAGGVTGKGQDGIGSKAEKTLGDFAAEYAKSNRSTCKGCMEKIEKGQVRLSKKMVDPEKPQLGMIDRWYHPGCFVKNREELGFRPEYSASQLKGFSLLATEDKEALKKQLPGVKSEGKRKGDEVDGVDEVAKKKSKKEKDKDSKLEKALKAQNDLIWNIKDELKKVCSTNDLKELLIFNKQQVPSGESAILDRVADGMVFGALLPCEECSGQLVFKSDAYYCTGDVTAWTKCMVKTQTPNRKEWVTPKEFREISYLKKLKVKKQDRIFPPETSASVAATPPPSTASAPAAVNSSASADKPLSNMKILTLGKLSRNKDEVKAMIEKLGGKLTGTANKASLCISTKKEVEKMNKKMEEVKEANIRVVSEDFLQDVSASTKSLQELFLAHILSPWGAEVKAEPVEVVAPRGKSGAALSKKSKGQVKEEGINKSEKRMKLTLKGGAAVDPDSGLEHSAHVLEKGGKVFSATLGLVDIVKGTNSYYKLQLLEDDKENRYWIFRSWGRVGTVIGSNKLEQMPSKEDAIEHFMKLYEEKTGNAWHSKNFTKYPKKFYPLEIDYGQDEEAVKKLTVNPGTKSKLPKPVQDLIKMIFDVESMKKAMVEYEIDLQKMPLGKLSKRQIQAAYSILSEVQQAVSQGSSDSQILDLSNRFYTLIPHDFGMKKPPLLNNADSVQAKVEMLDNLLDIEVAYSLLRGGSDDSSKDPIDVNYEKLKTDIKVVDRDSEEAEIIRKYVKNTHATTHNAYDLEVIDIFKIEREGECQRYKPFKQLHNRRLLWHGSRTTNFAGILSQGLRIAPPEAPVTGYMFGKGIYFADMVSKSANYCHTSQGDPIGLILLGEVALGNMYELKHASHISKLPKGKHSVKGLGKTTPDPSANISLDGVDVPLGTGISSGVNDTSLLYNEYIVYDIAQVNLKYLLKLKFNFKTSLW

DC50 (PARP-3)	DC50 (PARP-2)	Kd (PARP-2)	SMILES	other results
> 10 µM	2 µM	1.49 µM	NC(=O)c1cccc2[nH]n(C3CCN(C4CCCC4)CC3)c(=O)c12 [Compound 2, 2-(1-cyclopentylpiperidin-4-yl)-3-oxo-2,3-dihydro-1H-indazole-4-carboxamide]	
> 10 µM	> 10 µM		NC(=O)c1cccc2[nH]n(C3CCN(C4CCC(F)(F)CC4)CC3)c(=O)c12 [Compound 4, 2-[1-(4,4-difluorocyclohexyl)piperidin-4-yl]-3-oxo-2,3-dihydro-1H-indazole-4-carboxamide]	
2.15 µM	0.91 µM	0.54 µM	Cn1c2cccc(C(N)=O)c2c(=O)n1C1CCN(C2CCCCC2)CC1 [Compound 5, 2-(1-cyclohexylpiperidin-4-yl)-1-methyl-3-oxo-2,3-dihydro-1H-indazole-4-carboxamide]	clearance [1]: 41 mL/min/kg; Vd [1]: 4.3 L/kg; AUC [1]: 10.6 µM·h; half-life [1]: 1.89 h; C-max (oral) [1]: 4.77 µM; F on AUC [1]: 109%
2.58 µM	< 0.25 µM	0.05 µM	Cn1c2cccc(C(N)=O)c2c(=O)n1C1CCN(C2CCCC2)CC1 [Compound 7, 2-(1-cyclopentylpiperidin-4-yl)-1-methyl-3-oxo-2,3-dihydro-1H-indazole-4-carboxamide]	
2.75 µM	< 0.25 µM	0.04 µM	CN1CCC(n2[nH]c3cccc(C(N)=O)c3c2=O)CC1 [Compound 8, 2-(1-methylpiperidin-4yl)-3-oxo-2,3-dihydro-1H-indazole-4-carboxamide]	IC50 [3]: 0.6 µM; DC50 (PARP-1): < 0.25 µM; Kd (PARP-1): 0.14 µM
> 10 µM	2.57 µM		NC(=O)c1cccc2[nH]n(C3CCN(C4CCC4)CC3)c(=O)c12 [Compound 16, 2-(1-cyclobutylpiperidin-4-yl)-3-oxo-2,3-dihydro-1H-indazole-4-carboxamide]	
2.88 µM	< 0.25 µM		Cn1c2cccc(C(N)=O)c2c(=O)n1C1CCN(C2CCC2)CC1 [Compound 18, 2-(1-cyclobutylpiperidin-4-yl)-1-methyl-3-oxo-2,3-dihydro-1H-indazole-4-carboxamide]	
> 10 µM	5.94 µM	5 µM	NC(=O)c1cc(F)cc2[nH]n(C3CCN(C4CCCCC4)CC3)c(=O)c12 [Compound 23, 2-(1-cyclohexylpiperidin-4-yl)-6-fluoro-3-oxo-2,3-dihydro-1H-indazole-4-carboxamide]	
> 10 µM	> 10 µM		NC(=O)c1cccc2[nH]n(C3CCN(CC4CCCCC4)CC3)c(=O)c12 [Compound 31, 2-[1-(cyclohexylmethyl)piperidin-4-yl]-3-oxo-2,3-dihydro-1H-indazole-4-carboxamide]	

More lines, now with the values behind:

SMILES	DC50 (PARP-3)	DC50 (PARP-2)	Kd (PARP-2)	other results
NC(=O)c1cccc2[nH]n(C3CCNCC3)c(=O)c12 [Compound 1, 3-oxo-2-(piperidin-4-yl)-2,3-dihydro-1H-indazole-4-carboxamide]	0.58 µM	1.5 µM	0.78 µM	DC50 (PARP-1): < 0.25 µM; Kd (PARP-1): 0.08 µM
NC(=O)c1cccc2[nH]n(C3CCN(C4CCCCC4)CC3)c(=O)c12 [Compound 3, 2-(1-cyclohexylpiperidin-4-yl)-3-oxo-2,3-dihydro-1H-indazole-4-carboxamide]	> 10 µM	> 10 µM		clearance [1]: 17.8 mL/min/kg; Vd [1]: 1.3 L/kg; AUC [1]: 14.3 µM·h; half-life [1]: 1.77 h; C-max (oral) [1]: 5.6 µM; F on AUC [1]: 67%; T-C (days) ([2]; cpd 3 200 mg/kg oral days 1-12 + temozolomide 50 mg/kg oral days 3-8, time to reach 1 g): superior
Cn1c2cccc(C(N)=O)c2c(=O)n1C1CCN(C2CCC(F)(F)CC2)CC1 [Compound 6, 2-[1-(4,4-difluorocyclohexyl)piperidin-4-yl]-1-methyl-3-oxo-2,3-dihydro-1H-indazole-4-carboxamide]	2.34 µM	3.95 µM	1.88 µM	clearance [1]: 52.7 mL/min/kg; Vd [1]: 2.9 L/kg; AUC [1]: 3.87 µM·h; half-life [1]: 1.13 h; C-max (oral) [1]: 3.07 µM; F on AUC [1]: 49%; IC50 [3]: 0.1 µM; DC50 (PARP-1): < 0.25 µM; Kd (PARP-1): < 0.01 µM
Cn1c2cccc(C(N)=O)c2c(=O)n1C1CCNCC1 [Compound 9, 1-methyl-3-oxo-2-(piperidin-4-yl)-2,3-dihydro-1H-indazole-4-carboxamide]	0.45 µM	< 0.25 µM	0.14 µM	IC50 [3]: 0.05 µM; DC50 (PARP-1): < 0.25 µM; Kd (PARP-1): 0.014 µM
CC(C)N1CCC(n2c(=O)c3c(C(N)=O)cccc3n2C)CC1 [Compound 14, 1-methyl-3-oxo-2-[1-(propan-2-yl)piperidin-4-yl]-2,3-dihydro-1H-indazole-4-carboxamide]	> 10 µM	< 0.25 µM	0.03 µM	
NC(=O)c1cc(F)cc2[nH]n(C3CCNCC3)c(=O)c12 [Compound 20, 6-fluoro-3-oxo-2-(piperidin-4-yl)-2,3-dihydro-1H-indazole-4-carboxamide]	0.25 µM	0.5 µM	0.3 µM	DC50 (PARP-1): < 0.25 µM; Kd (PARP-1): < 0.01 µM; Kd (PARP-3): 0.05 µM
Cn1c2cc(F)cc(C(N)=O)c2c(=O)n1C1CCNCC1 [Compound 21, 6-fluoro-1-methyl-3-oxo-2-(piperidin-4-yl)-2,3-dihydro-1H-indazole-4-carboxamide]	0.22 µM	< 0.25 µM	0.07 µM	DC50 (PARP-1): < 0.25 µM; Kd (PARP-1): < 0.01 µM; Kd (PARP-3): 0.04 µM
Cn1c2cc(F)cc(C(N)=O)c2c(=O)n1C1CCN(C2CCCCC2)CC1 [Compound 22, 2-(1-cyclohexylpiperidin-4-yl)-6-fluoro-1-methyl-3-oxo-2,3-dihydro-1H-indazole-4-carboxamide]	0.7 µM	0.79 µM	0.5 µM	clearance [1]: 38.7 mL/min/kg; Vd [1]: 6.4 L/kg; AUC [1]: 12.8 µM·h; half-life [1]: 2.25 h; C-max (oral) [1]: 4.72 µM; F on AUC [1]: 150%; Kd (PARP-3): 0.27 µM
Cn1c2cccc(C(N)=O)c2c(=O)n1C1CCN(CC2CCCCC2)CC1 [Compound 33, 2-[1-(cyclohexylmethyl)piperidin-4-yl]-1-methyl-3-oxo-2,3-dihydro-1H-indazole-4-carboxamide]	2.9 µM	> 10 µM		
NC(=O)c1cccc2[nH]n(C3CCN(Cc4cccs4)CC3)c(=O)c12 [Compound 62, 3-oxo-2-[1-(thiophen-2-ylmethyl)piperidin-4-yl]-2,3-dihydro-1H-indazole-4-carboxamide]	0.46 µM	> 10 µM		IC50 [3]: 0.07 µM; DC50 (PARP-1): < 0.25 µM; Kd (PARP-1): 0.022 µM
Cn1c2cccc(C(N)=O)c2c(=O)n1C1CCN(Cc2cccs2)CC1 [Compound 63, 1-methyl-3-oxo-2-[1-(thiophen-2-ylmethyl)piperidin-4-yl]-2,3-dihydro-1H-indazole-4-carboxamide]	1.42 µM	3.56 µM		
NC(=O)c1cccc2[nH]n(C3CCN(CC4CC=CCC4)CC3)c(=O)c12 (stereo not drawn) [Compound 64, 2-[1-(cyclohex-3-en-1-ylmethyl)piperidin-4-yl]-3-oxo-2,3-dihydro-1H-indazole-4-carboxamide]	> 10 µM	> 10 µM		
Cn1c2cccc(C(N)=O)c2c(=O)n1C1CCN(CC2CC=CCC2)CC1 (stereo not drawn) [Compound 65, 2-[1-(cyclohex-3-en-1-ylmethyl)piperidin-4-yl]-1-methyl-3-oxo-2,3-dihydro-1H-indazole-4-carboxamide]	1.78 µM	4.19 µM		clearance [1]: 53.8 mL/min/kg; Vd [1]: 3.4 L/kg; AUC [1]: 4.06 µM·h; half-life [1]: 1.16 h; C-max (oral) [1]: 1.93 µM; F on AUC [1]: 50%
NC(=O)c1cccc2[nH]n(C3CCN(Cc4ccco4)CC3)c(=O)c12 [Compound 66, 2-[1-(furan-2-ylmethyl)piperidin-4-yl]-3-oxo-2,3-dihydro-1H-indazole-4-carboxamide]	0.58 µM	> 10 µM		
Cn1c2cccc(C(N)=O)c2c(=O)n1C1CCN(Cc2ccco2)CC1 [Compound 67, 2-[1-(furan-2-ylmethyl)piperidin-4-yl]-1-methyl-3-oxo-2,3-dihydro-1H-indazole-4-carboxamide]	2.56 µM	2.29 µM		
O=C(c1cc(Cc2n[nH]c(=O)c3ccccc23)ccc1F)N1CCN(C(=O)C2CC2)CC1 [Olaparib]				partial responses [4]: 4 out of 10
Cn1nnc2c(C(N)=O)ncn2c1=O [temozolomide]				BWL (%) [2, 5]: 2%; Max TGI (%) [2, 5]: 13%; Toxicity ([2]; temozolomide alone 50 mg/kg oral, days 3-8, seven animals per group): 0/7; T-C ([2]; temozolomide alone 50 mg/kg oral, days 3-8, time to reach 1 g): 1 days
